{
  "source": "patent US7592357B2",
  "about": "“Compounds” (SmithKline Beecham Corporation, priority 2004, dated 2009)",
  "molecular_target": "T1, human recombinant ROCK1 kinase domain (amino acid 2-543) (Homo sapiens, UniProt Q13464)",
  "T1 construct": "ROCK1 kinase domain (amino acid 2-543); His-tag; made in house; host or cells: Sf9 cells",
  "T1 sequence (Q13464 2-543)": "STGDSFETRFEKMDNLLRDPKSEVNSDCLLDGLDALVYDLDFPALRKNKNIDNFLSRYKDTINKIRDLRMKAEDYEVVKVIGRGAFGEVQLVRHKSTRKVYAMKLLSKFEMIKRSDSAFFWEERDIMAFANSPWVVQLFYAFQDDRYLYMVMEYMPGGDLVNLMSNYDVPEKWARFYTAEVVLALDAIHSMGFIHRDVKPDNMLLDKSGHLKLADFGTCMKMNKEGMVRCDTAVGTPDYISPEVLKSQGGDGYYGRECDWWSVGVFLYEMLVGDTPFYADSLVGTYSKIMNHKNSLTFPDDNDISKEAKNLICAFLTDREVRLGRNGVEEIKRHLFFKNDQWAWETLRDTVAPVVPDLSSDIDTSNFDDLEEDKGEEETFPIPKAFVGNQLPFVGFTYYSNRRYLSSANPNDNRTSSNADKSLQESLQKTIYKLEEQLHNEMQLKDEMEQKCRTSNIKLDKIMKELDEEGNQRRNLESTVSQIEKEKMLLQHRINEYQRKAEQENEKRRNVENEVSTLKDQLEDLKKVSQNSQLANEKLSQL",
  "assay": "ROCK Kinase Assay",
  "format": "biochemical",
  "conditions": "1 nM hROCK1, 1 uM ATP, SPA; results recorded as pIC50; range tested 50 uM to 0.8 nM or 10 uM to 0.8 nM",
  "description": "ROCK inhibitor activity was determined using human recombinant ROCK1 kinase domain (amino acid 2-543) expressed in Sf9 cells (see WO9967283). The enzyme was purified using His-tag NTA column and Source15 HPLC chromatography. The assay of Rock-1 activity involved incubation with peptide substrate and ATP^33, the subsequent incorporation of P^33 into the peptide was quantified by Scintillation Proximity Assay (SPA—Amersham Pharmacia).\nFor IC50 determination, test compounds were typically dissolved at 10 mM in 100% DMSO, with subsequent serial dilution in 100% DMSO. Compounds were typically assayed over an eleven point dilution range with a concentration in the assay of 50 uM to 0.8 nM, in 3-fold dilutions. IC50) values were calculated by bespoke curve fitting software and then converted to pIC50. In some cases, compounds were assayed over an eleven point dilution range with a concentration in the assay of 10 uM to 0.8 nM, in 3-fold dilutions. […]\nAssays were performed in opaque, white walled, 384 well plates, in a total assay volume of 20 ul. […] P^33 incorporation was quantified by scintillation counting in a Packard TopCount. When the reaction was terminated by addition of a 10 ul solution, P33 incorporation was quantified by luminescence detection using a PerkinElmer Viewlux ultraHTS microplate imager.",
  "data": [
    {"smiles": "COc1cccc(CN2C(=O)CC(c3ccc(C(F)(F)F)cc3)C(C(=O)Nc3cc4cn[nH]c4cc3F)=C2C)c1", "note": "(stereo not shown) [Example 104, N-(6-Fluoro-1H-indazol-5-yl)-2-methyl-1-{[3-(methyloxy)phenyl]methyl}-6-oxo-4-[4-(trifluoromethyl)phenyl]-1,4,5,6-tetrahydro-3-pyridinecarboxamide]", "values": [
      {"measurement": "activity in the ROCK kinase assay", "value": "not active"}
    ]}
  ]
}
